Experimental data taken from patent US7470714B2, “GM-95-containing antitumor effect potentiator, combined antitumor preparation and antitumor agent” (Sosei Co., Ltd., priority 2003, dated 2008).

Columns and labels:
Solubility in solvents = type: physicochemical
K562 cells = assay: Apoptosis induction into K562 cells by combined use, flow cytometry with APO 2.7 antibody; type: cell-based; settings: K562 cells cultured 10 days with 2 μM Telomestatin, then 72 hours with the antitumor substance
Procedure: K562 cells (available from ATCC (Rockville, Md.)) were cultured for 10 days in the presence of 2 μM Telomestatin (GM-95 substance). Subsequently, the Telomestatin-treated K562 cells were incubated for 72 hours together with Imanitib, Daunorubicin (DNR), Mitoxantrone (MIT), or Vincristine (VCR). The expression of apoptosis was measured by flow cytometric analysis using an FITC conjugate APO 2.7 monoclonal antibody (which is generated to a mitochondrial membrane protein (7A6 antigen) and is expressed in cells wherein apoptosis takes place). In the figures, the terms “control,” “TMS,” “Imanitib,” “DNR,” “MIT,” and “VCR” represent a control substance, the GM-95 substance (Telomestatin), Imanitib, Daunorubicin, Mitoxantrone, and Vincristine, respectively.

HT1080 cells = assay: Combined use of GM-95 substance with another antitumor substance, survival rate by MTT method; type: cell-based
Procedure: Tumor cells were cultured under the conditions described below using the GM-95 substance and another antitumor substance in the same manner as in Example 3. After a certain period of time had passed, the survival rate of the tumor cells was measured.
HT1080 cells were used as tumor cells. In the following experiments, the tumor cells were cultured in a medium formed by adding 10% FBS to RPMI1640 (SIGMA, R8758) using a CO2 incubator (temperature: 37° C.; humidity: 100%; CO2 concentration: 5%).
HT1080 cells were cultured under conditions described in the following (A) to (C). After completion of the culture, the survival rate of the tumor cells was measured by the MTT method. • (A): 0.5 μM GM-95 substance and each of the aforementioned antitumor substances with a certain concentration were simultaneously added to the HT1080 cells, and the tumor cells were then cultured for 2 days. After completion of the culture, the survival rate of the tumor cells was measured. • (B): The tumor cells were previously cultured for 7 days together with 0.5 μM or 1 μM GM-95 substance. […] After completion of the culture, the survival rate of the tumor cells was measured. • (C): The tumor cells were previously cultured for 7 or 14 days together with 0.5 μM or 1 μM GM-95 substance. […] After completion of the culture, the survival rate of the tumor cells was measured. […]

MCF-7 cells = assay: as above; type: cell-based; settings: 1 μM or 2 μM GM-95 for 7 or 14 days, then 2 days with antitumor substance
Procedure: Tumor cells were cultured under the conditions described below using the GM-95 substance and another antitumor substance in the same manner as in Example 5. After a certain period of time had passed, the survival rate of the tumor cells was measured.
MCF-7 cells were used as tumor cells. In the following experiments, the tumor cells were cultured in a medium formed by adding 10% FBS to DMEM (SIGMA, D6046) using a CO2 incubator (temperature: 37° C.; humidity: 100%; CO2 concentration: 5%).
MCF-7 cells were cultured under conditions described in the following (D) and (E). After completion of the culture, the survival rate of the tumor cells was measured by the MTT method. • (D): The tumor cells were previously cultured for 7 days together with 1 μM or 2 μM GM-95 substance. Thereafter, each of the aforementioned antitumor substances with a certain concentration was added to the cells in the absence of the GM-95 substance, followed by culture for 2 days. After completion of the culture, the survival rate of the tumor cells was measured. • (E): The tumor cells were previously cultured for 14 days together with 1 μM or 2 μM GM-95 substance. […] After completion of the culture, the survival rate of the tumor cells was measured. […]

[1] = tested on: several types of cancer cells; assay: Action of the GM-95 substance on several types of cancer cells; type: cell-based
Procedure: The inventors have already reported the details thereof (refer to International Publication WO00/24747, for example). The GM-95 substance is the strongest telomerase inhibitor among telomerase inhibitors including synthetic compounds that have been reported to date. The action of the GM-95 substance on several types of cancer cells was analyzed. […] In addition, the aged cells had lost their tumorigenicity.

For `Cc1oc2nc1-c1nc(co1)-c1nc(co1)-c1nc(co1)-c1nc(co1)-c1nc(co1)C1=NC(CS1)c1nc-2c(C)o1` (stereo not drawn) [GM-95], the Solubility in acetone (Solubility in solvents; acetone) was “insoluble”, the “Solubility in a mixture consisting of chloroform and methanol (1:1)” value (Solubility in solvents; chloroform and methanol (1:1)) was “soluble” and the Solubility in water (Solubility in solvents; water) was “insoluble”. The “Effect of inducing apoptosis by combined use of Telomestatin with another antitumor substance” value (“Effect of inducing apoptosis” for short) (K562 cells) was “act synergistically”, the “Antitumor action by combined use of the GM-95 substance with another antitumor substance (survival rate)” value (HT1080 cells; HT1080, 0.5 μM or 1 μM GM-95, simultaneous or 7 or 14 days pre-treatment, then 2 days with antitumor substance) was “enhanced” and the “Number of surviving cells” value (HT1080 cells; HT1080 cultured for 14 days in the presence of 1 μM GM-95 substance) was “very small”. For the same molecule, the “Antitumor action by combined use of the GM-95 substance with another antitumor substance (survival rate)” value (MCF-7 cells) was “enhanced” and the “Induction of aging of cells attended with telomere shortening” value [1] was “induces the aging of cells”.
With `CC[C@]1(O)C[C@H]2CN(CCc3c([nH]c4ccccc34)[C@@](C(=O)OC)(c3cc4c(cc3OC)N(C=O)[C@H]3[C@@](O)(C(=O)OC)[C@H](OC(C)=O)[C@]5(CC)C=CCN6CC[C@]43[C@@H]65)C2)C1` [Vincristine] the “Effect of inducing apoptosis” value (K562 cells) was “act synergistically”.
With `Cc1ccc(NC(=O)c2ccc(CN3CCN(C)CC3)cc2)cc1Nc1nccc(-c2cccnc2)n1` [Imanitib] the “Effect of inducing apoptosis” value (K562 cells) was “act synergistically”.
For `COc1cccc2c1C(=O)c1c(O)c3c(c(O)c1C2=O)C[C@@](O)(C(C)=O)C[C@@H]3O[C@H]1C[C@H](N)[C@H](O)[C@H](C)O1` [Daunorubicin], the “Effect of inducing apoptosis” value (K562 cells) was “act synergistically”.
In the case of `O=C1c2c(O)ccc(O)c2C(=O)c2c(NCCNCCO)ccc(NCCNCCO)c21` [Mitoxantrone], the “Effect of inducing apoptosis” value (K562 cells) is reported as “act synergistically”.
